Source: publication PMC11012124, “Synthesis of Novel Triazine-Based Chalcones and 8,9-dihydro-7H-pyrimido[4,5-b][1,4]diazepines as Potential Leads in the Search of Anticancer, Antibacterial and Antifungal Agents” (International Journal of Molecular Sciences, 2024)
In brackets after ≈: the same amount, converted by molar mass.

Experiments:
[1] = tested on: M. tuberculosis ATCC 27294; assay: Antitubercular broth microdilution MIC; assay type: cell-based; conditions: Mycobacterium tuberculosis; M. tuberculosis ATCC 27294 (H37Rv); read-out: Minimum inhibitory concentration (MIC)
A. niger (ATCC 9029) = assay: Antifungal broth microdilution (CLSI); assay type: cell-based; conditions: ATCC9029; Ani: Aspergillus niger
How it was run: (§1)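 Broth microdilution followed CLSI M27-A3 for yeasts and the filamentous-fungi reference method, in 200 μL final volume with DMSO-matched growth controls. Plates were incubated in the dark and humid at 30 °C for a time suited to each fungus; testing was done in triplicate.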

[2] = tested on: Microsporum gypseum (CCC 115); assay: Antifungal broth microdilution (CLSI); assay type: cell-based; conditions: Nannizzia gypsea; Mg: Microsporum gypseum
How it was run: as §1

[3] = Hemolytic activity, spectrophotometric; assay type: cell-based, human; conditions: human, human red blood cells (huRBC), 5% hematocrit, 200 μg/mL, 37 °C
CCRF-CEM = assay: cells; conditions: Homo sapiens, 48 h; for CC50: read-out: LC50
K-562 = assay: cells; conditions: Homo sapiens, K562, 48 h; for GI50: K-562, 48 h; for CC50: read-out: LC50
SR = assay: cells; conditions: Homo sapiens, 48 h; for CC50: read-out: LC50
EKVX = assay: cells; conditions: Homo sapiens, 48 h; for CC50: read-out: LC50
HOP-62 = assay: cells; conditions: Homo sapiens, HOP-62, 48 h; for CC50: read-out: LC50
NCI-H322M = assay: cells; conditions: Homo sapiens, 48 h; for CC50: read-out: LC50
HCC-2998 = assay: cells; conditions: Homo sapiens, HCC 2998, 48 h; for CC50: read-out: LC50
SW-620 = assay: cells; conditions: Homo sapiens, SW-620, 48 h; for CC50: read-out: LC50
SF-268 = assay: cells; conditions: Homo sapiens, SF-268, 48 h; for CC50: read-out: LC50
SNB-19 = assay: cells; conditions: Homo sapiens, SNB-19, 48 h; for CC50: read-out: LC50
MALME-3M = assay: cells; conditions: Homo sapiens, 48 h; for CC50: read-out: LC50
MDA-MB-435 = assay: cells; conditions: Homo sapiens, MDA-MB-435, 48 h; for CC50: read-out: LC50
SK-MEL-28 = assay: cells; conditions: Homo sapiens, SK-MEL-28, 48 h; for CC50: read-out: LC50
UACC-62 = assay: cells; conditions: Homo sapiens, UACC-62, 48 h; for CC50: read-out: LC50
IGROV1 = assay: cells; conditions: Homo sapiens, IGROV-1, 48 h; for CC50: read-out: LC50
OVCAR-3 = assay: cells; conditions: Homo sapiens, OVCAR-3, 48 h; for CC50: read-out: LC50
OVCAR-8 = assay: cells; conditions: Homo sapiens, OVCAR-8, 48 h; for CC50: read-out: LC50
NCI/ADR-RES = assay: cells; conditions: Homo sapiens, 48 h; for CC50: read-out: LC50
ACHN = assay: cells; conditions: Homo sapiens, 48 h; for CC50: read-out: LC50
CAKI-1 = assay: cells; conditions: Homo sapiens, CAKI-1, 48 h; for CC50: read-out: LC50
RXF 393 = assay: cells; conditions: Homo sapiens, RXF 393, 48 h; for CC50: read-out: LC50
PC-3 = assay: cells; conditions: Homo sapiens, PC-3, 48 h; for CC50: read-out: LC50
HS 578T = assay: cells; conditions: Homo sapiens, 48 h; for CC50: read-out: LC50
BT-549 = assay: cells; conditions: Homo sapiens, BT-549, 48 h; for CC50: read-out: LC50
[4] = tested on: N. gonorrhoeae ATCC 49226; assay: MIC on GC agar plates; assay type: cell-based, Neisseria gonorrhoeae; conditions: Neisseria gonorrhoeae, ATCC49226, read-out: MIC
How it was run: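 N. gonorrhoeae (1 × 10^4 CFU) was spotted onto IsoVitaleX-supplemented (1%) GC agar containing graded compound levels. The lowest inhibitory concentration was recorded as the MIC, with oxidase testing used to verify growth, and each assay was done in duplicate on at least two separate occasions.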

## COc1ccc(/C=C/C(=O)c2ccc(S(=O)(=O)NCCNc3nc(Nc4ccc(F)cc4)nc(N(C)C)n3)cc2)cc1 [24c]
[1]
  MIC: 25 µg/mL (≈ 42.3 µM)
A. niger (ATCC 9029)
  MIC: > 250 µg/mL
[2]
  MIC: > 250 µg/mL
[3]
  hemolysis at 24 h, 200 µg/mL: 0.1%
CCRF-CEM
  GI50: 4.09 µM
  CC50: > 100 µM
K-562
  GI50: 3.99 µM
  CC50: > 100 µM
SR
  GI50: 2.97 µM
  CC50: > 100 µM
EKVX
  GI50: 4.12 µM
  CC50: > 100 µM
HOP-62
  GI50: 17.1 µM
  CC50: > 100 µM
NCI-H322M
  GI50: 10.2 µM
  CC50: > 100 µM
HCC-2998
  GI50: 5.47 µM
  CC50: 43.2 µM
SW-620
  GI50: 5.42 µM
  CC50: 52.3 µM
SF-268
  GI50: 4.43 µM
  CC50: > 100 µM
SNB-19
  GI50: 5.58 µM
  CC50: > 100 µM
MALME-3M
  GI50: 10.6 µM
  CC50: > 100 µM
MDA-MB-435
  GI50: 5.47 µM
  CC50: 79.6 µM
SK-MEL-28
  GI50: 5.23 µM
  CC50: 47.3 µM
UACC-62
  GI50: 4.79 µM
  CC50: 51.6 µM
IGROV1
  GI50: 10.8 µM
  CC50: > 100 µM
OVCAR-3
  GI50: 5.01 µM
  CC50: 59.4 µM
OVCAR-8
  GI50: 9.51 µM
  CC50: > 100 µM
NCI/ADR-RES
  GI50: 5.66 µM
  CC50: > 100 µM
ACHN
  GI50: 3.4 µM
  CC50: > 100 µM
CAKI-1
  GI50: 3.34 µM
  CC50: > 100 µM
RXF 393
  GI50: 2.59 µM
  CC50: 41.7 µM
PC-3
  GI50: 3.5 µM
  CC50: > 100 µM
HS 578T
  GI50: 4.68 µM
  CC50: > 100 µM
BT-549
  GI50: 13.2 µM
  CC50: 56.7 µM

## CN(C)c1nc(NCCNS(=O)(=O)c2ccc(C(=O)/C=C/c3ccc(Cl)cc3)cc2)nc(Nc2ccc(F)cc2)n1 [24e]
[4]
  MIC: 500 µg/mL (≈ 839 µM)
[1]
  MIC: 25 µg/mL (≈ 41.9 µM)
A. niger (ATCC 9029)
  MIC: > 250 µg/mL
[2]
  MIC: > 250 µg/mL
[3]
  hemolysis at 24 h, 200 µg/mL: 9.1%
CCRF-CEM
  GI50: 3.75 µM
  CC50: > 100 µM
K-562
  GI50: 3.29 µM
  CC50: > 100 µM
EKVX
  GI50: 3.11 µM
  CC50: 14.7 µM
HOP-62
  GI50: 12.5 µM
  CC50: 27.5 µM
NCI-H322M
  GI50: 9.36 µM
  CC50: 24.9 µM
HCC-2998
  GI50: 2.48 µM
  CC50: 6.9 µM
SW-620
  GI50: 2.78 µM
  CC50: 11 µM
SF-268
  GI50: 6.21 µM
  CC50: 23.5 µM
SNB-19
  GI50: 9.18 µM
  CC50: 21.3 µM
MALME-3M
  GI50: 12.8 µM
  CC50: 26.4 µM
MDA-MB-435
  GI50: 3.8 µM
  CC50: 14 µM
SK-MEL-28
  GI50: 6.77 µM
  CC50: 20.1 µM
UACC-62
  GI50: 5.41 µM
  CC50: 18.7 µM
IGROV1
  GI50: 8.58 µM
  CC50: 21.4 µM
OVCAR-3
  GI50: 3.16 µM
  CC50: 11.9 µM
OVCAR-8
  GI50: 10.2 µM
  CC50: 23.7 µM
NCI/ADR-RES
  GI50: 5.49 µM
  CC50: 18.4 µM
ACHN
  GI50: 4.2 µM
  CC50: 15.3 µM
CAKI-1
  GI50: 4.93 µM
  CC50: 19.5 µM
RXF 393
  GI50: 3.09 µM
  CC50: 15.1 µM
PC-3
  GI50: 3.74 µM
  CC50: 14.1 µM
HS 578T
  GI50: 11.4 µM
  CC50: 58.1 µM
BT-549
  GI50: 11.6 µM
  CC50: 23.9 µM

## COc1cc(C2CC(c3ccc(Cl)cc3)=Nc3c(N)nc(N)nc3N2)ccc1Oc1nc(Nc2ccc(F)cc2)nc(N(C)C)n1 (stereo not shown) [29e]
[4]
  MIC: ≥ 500 µg/mL
[1]
  MIC: 1.2 µg/mL (≈ 1.87 µM)
A. niger (ATCC 9029)
  MIC: > 250 µg/mL
[2]
  MIC: > 250 µg/mL
CCRF-CEM
  CC50: > 100 µM
K-562
  GI50: 4.5 µM
  CC50: > 100 µM
SR
  GI50: 3.41 µM
  CC50: > 100 µM
EKVX
  GI50: > 100 µM
  CC50: > 100 µM
HOP-62
  GI50: > 100 µM
  CC50: > 100 µM
NCI-H322M
  GI50: > 100 µM
  CC50: > 100 µM
HCC-2998
  GI50: 45.3 µM
  CC50: > 100 µM
SW-620
  GI50: > 100 µM
  CC50: > 100 µM
SF-268
  GI50: > 100 µM
  CC50: > 100 µM
SNB-19
  GI50: > 100 µM
  CC50: > 100 µM
MALME-3M
  GI50: > 100 µM
  CC50: > 100 µM
MDA-MB-435
  GI50: > 100 µM
  CC50: > 100 µM
SK-MEL-28
  GI50: > 100 µM
  CC50: > 100 µM
UACC-62
  GI50: > 100 µM
  CC50: > 100 µM
IGROV1
  CC50: > 100 µM
OVCAR-3
  GI50: > 100 µM
  CC50: > 100 µM
OVCAR-8
  GI50: > 100 µM
  CC50: > 100 µM
ACHN
  GI50: > 100 µM
  CC50: > 100 µM
CAKI-1
  GI50: 3.38 µM
  CC50: > 100 µM
RXF 393
  GI50: 2.46 µM
  CC50: > 100 µM
PC-3
  GI50: 6.16 µM
  CC50: > 100 µM
HS 578T
  GI50: 84.8 µM
  CC50: > 100 µM
BT-549
  GI50: 35.5 µM
  CC50: > 100 µM
